{
  "source": "paper PMC6934184",
  "about": "“Selective DNA-PKcs inhibition extends the therapeutic index of localized radiotherapy and chemotherapy” (The Journal of Clinical Investigation, 2019)",
  "target": "T1, MAPKAPK5 (PRAK) (Homo sapiens, UniProt Q8IW41)",
  "T1 construct": "purchased Thermo Fisher Scientific (Life Technologies) SelectScreen",
  "T1 sequence (Q8IW41 whole entry)": "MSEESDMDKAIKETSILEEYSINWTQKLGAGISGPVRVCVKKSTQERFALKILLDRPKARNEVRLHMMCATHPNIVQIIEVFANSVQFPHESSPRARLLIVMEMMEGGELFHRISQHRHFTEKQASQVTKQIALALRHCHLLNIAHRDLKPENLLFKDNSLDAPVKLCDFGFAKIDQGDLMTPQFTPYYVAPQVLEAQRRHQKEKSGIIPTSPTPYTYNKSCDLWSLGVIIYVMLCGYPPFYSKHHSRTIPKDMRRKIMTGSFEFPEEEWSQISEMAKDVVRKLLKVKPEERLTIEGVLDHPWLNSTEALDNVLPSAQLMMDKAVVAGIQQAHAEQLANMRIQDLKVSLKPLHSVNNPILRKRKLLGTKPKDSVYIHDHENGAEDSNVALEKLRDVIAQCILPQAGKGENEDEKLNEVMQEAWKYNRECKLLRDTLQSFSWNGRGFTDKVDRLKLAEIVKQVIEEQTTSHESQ",
  "test": "SelectScreen Z'LYTE",
  "format": "biochemical",
  "procedure,_shortened": "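SelectScreen broad panel; activity (Z'LYTE, Adapta) plus binding formats. ATP: Km app for CSF1R Z'LYTE; 10 for CAMK1 Adapta. Readout = % per kinase.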",
  "data": [
    {"smiles": "CN(C(=O)CN1CCOCC1)c1ccc2sc3c(-c4cccc5c(=O)cc(N6CC7CCC(C6)O7)oc45)cccc3c2c1", "note": "[NU5455]", "values": [
      {"measurement": "inhibition at 1 µM", "result": 0.6, "unit": "%"}
    ]}
  ]
}
